Experimental data taken from PubChem BioAssay AID328 (DTP/NCI, 2004).
Inconclusive results and toxic doses are left out.

Tested on: BDF1 mice, P388 leukemia ip, median survival T/C
Test: NCI In Vivo Anticancer Drug Screen. Data for tumor model P388 Leukemia (intraperitoneal) in B6D2F1 (BDF1) mice
Conditions: endpoint: median survival time, higher = longer survival
Procedure, shortened: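 Read-out is survival of treated animals expressed relative to the vehicle group, as a T/C ratio.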

[1] = dose: 100.0 mg/kg/injection, schedule: Q01DX009 (ip), vehicle: saline
[2] = dose: 100.0 mg/kg/injection, schedule: Q04DX003 (ip), vehicle: saline
[3] = dose: 50.0 mg/kg/injection, schedule: Q01DX009 (ip), vehicle: saline with Tween-80
[4] = dose: 100.0 mg/kg/injection, schedule: Q01DX009 (ip), vehicle: saline with Tween-80
[5] = dose: 12.5 mg/kg/injection, schedule: Q01DX009 (ip), vehicle: saline with Tween-80
[6] = dose: 25.0 mg/kg/injection, schedule: Q04DX003 (ip), vehicle: saline
[7] = dose: 50.0 mg/kg/injection, schedule: Q04DX003 (ip), vehicle: saline
[8] = dose: 100.0 mg/kg/injection, schedule: Q04DX003 (ip), vehicle: saline with Tween-80
[9] = dose: 200.0 mg/kg/injection, schedule: Q04DX003 (ip), vehicle: saline with Tween-80

SMILES: CN(C)C(=O)NNC(=O)N(C)C
- T/C [1]: 104 % of control
- T/C [2]: 100 % of control
- T/C (dose: 200.0 mg/kg/injection, schedule: Q01DX009 (ip), vehicle: saline): 95 % of control
- T/C (dose: 200.0 mg/kg/injection, schedule: Q04DX003 (ip), vehicle: saline): 100 % of control
- T/C (dose: 400.0 mg/kg/injection, schedule: Q01DX009 (ip), vehicle: saline): 95 % of control
- T/C (dose: 400.0 mg/kg/injection, schedule: Q04DX003 (ip), vehicle: saline): 100 % of control

SMILES: Cc1ccc2c(ccc(C)[n+]2C)c1
- T/C (dose: 67.0 mg/kg/injection, schedule: Q01DX009 (ip), vehicle: saline): 183 % of control
- T/C [1]: 150 % of control

SMILES: N#CC1=C(N)CCC2(C1)c1ccccc1-c1ccccc12
- T/C [3]: 103 % of control
- T/C [4]: 88 % of control
- T/C (dose: 200.0 mg/kg/injection, schedule: Q01DX009 (ip), vehicle: saline with Tween-80): 96 % of control

SMILES: O=C1CC(c2ccc(Br)cc2)N(c2ccc([As](=O)(O)O)cc2)C1=O (stereo unspecified)
- T/C (dose: 3.13 mg/kg/injection, schedule: Q01DX009 (ip), vehicle: saline with Tween-80): 90 % of control
- T/C (dose: 6.25 mg/kg/injection, schedule: Q01DX009 (ip), vehicle: saline with Tween-80): 109 % of control
- T/C [5]: 109 % of control

SMILES: Cc1c2oc3c(C)ccc(C(=O)NC4C(=O)NC(C(C)C)C(=O)N5CCCC5C(=O)N(C)CC(=O)N(C)C(C(C)C)C(=O)OC4C)c3nc-2c(C(=O)NC2C(=O)NC(C(C)C)C(=O)N3CCCC3C(=O)N(C)CC(=O)N(C)C(C(C)C)C(=O)OC2C)c(NCCCO)c1=O (stereo unspecified)
- T/C (dose: 0.05 mg/kg/injection, schedule: Q01DX009 (ip), vehicle: saline + alcohol): 150 % of control
- T/C (dose: 0.1 mg/kg/injection, schedule: Q01DX009 (ip), vehicle: saline + alcohol): 172 % of control
- T/C (dose: 0.2 mg/kg/injection, schedule: Q01DX009 (ip), vehicle: saline + alcohol): 210 % of control
- T/C (dose: 0.3 mg/kg/injection, schedule: Q04DX003 (ip), vehicle: saline + alcohol): 169 % of control
- T/C (dose: 0.4 mg/kg/injection, schedule: Q01DX009 (ip), vehicle: saline + alcohol): 226 % of control
- T/C (dose: 0.6 mg/kg/injection, schedule: Q04DX003 (ip), vehicle: saline + alcohol): 191 % of control
- T/C (dose: 0.8 mg/kg/injection, schedule: Q01DX001 (ip), vehicle: saline + alcohol): 153 % of control
- T/C (dose: 0.8 mg/kg/injection, schedule: Q01DX009 (ip), vehicle: saline + alcohol): 285 % of control
- T/C (dose: 1.2 mg/kg/injection, schedule: Q04DX003 (ip), vehicle: saline + alcohol): 200 % of control
- T/C (dose: 2.4 mg/kg/injection, schedule: Q04DX003 (ip), vehicle: saline + alcohol): 261 % of control
- T/C (dose: 3.2 mg/kg/injection, schedule: Q01DX001 (ip), vehicle: saline + alcohol): 207 % of control
- T/C (dose: 4.8 mg/kg/injection, schedule: Q04DX003 (ip), vehicle: saline + alcohol): 248 % of control
- T/C (dose: 6.4 mg/kg/injection, schedule: Q01DX001 (ip), vehicle: saline + alcohol): 198 % of control

SMILES: CCCCCCCCCCCC(c1ccccc1)[N+](C)(C)Cc1ccccc1 (stereo unspecified)
- T/C (dose: 0.25 mg/kg/injection, schedule: Q01DX010 (ip), vehicle: saline): 100 % of control
- T/C (dose: 0.5 mg/kg/injection, schedule: Q01DX010 (ip), vehicle: saline): 108 % of control
- T/C (dose: 1.0 mg/kg/injection, schedule: Q01DX010 (ip), vehicle: saline): 116 % of control
- T/C (dose: 2.0 mg/kg/injection, schedule: Q01DX010 (ip), vehicle: saline): 108 % of control

SMILES: F
- T/C (dose: 0.25 mg/kg/injection, schedule: Q01DX009 (ip), vehicle: water): 113 % of control
- T/C (dose: 0.5 mg/kg/injection, schedule: Q01DX009 (ip), vehicle: water): 95 % of control
- T/C (dose: 0.62 mg/kg/injection, schedule: Q01DX009 (ip), vehicle: water): 86 % of control
- T/C (dose: 1.25 mg/kg/injection, schedule: Q01DX009 (ip), vehicle: water): 100 % of control
- T/C (dose: 2.5 mg/kg/injection, schedule: Q01DX009 (ip), vehicle: water): 95 % of control
- T/C (dose: 5.0 mg/kg/injection, schedule: Q01DX009 (ip), vehicle: water): 100 % of control
- T/C (dose: 6.25 mg/kg/injection, schedule: Q01DX009 (ip), vehicle: water): 100 % of control
- T/C (dose: 6.25 mg/kg/injection, schedule: Q04DX003 (ip), vehicle: saline): 100 % of control
- T/C (dose: 12.5 mg/kg/injection, schedule: Q01DX009 (ip), vehicle: saline): 100 % of control
- T/C (dose: 12.5 mg/kg/injection, schedule: Q01DX009 (ip), vehicle: water): 100 % of control
- T/C (dose: 12.5 mg/kg/injection, schedule: Q04DX003 (ip), vehicle: saline): 100 % of control
- T/C (dose: 25.0 mg/kg/injection, schedule: Q01DX009 (ip), vehicle: saline): 100 % of control
- T/C (dose: 25.0 mg/kg/injection, schedule: Q01DX009 (ip), vehicle: water): 95 % of control
- T/C [6]: 100 % of control
- T/C (dose: 33.0 mg/kg/injection, schedule: Q04DX003 (ip), vehicle: saline): 104 % of control
- T/C [7]: 95 % of control

SMILES: CC[CH2][Pb]([Cl])([CH2]CC)[CH2]CC
- T/C (dose: 0.18 mg/kg/injection, schedule: Q01DX009 (ip), vehicle: DMSO): 87 % of control
- T/C (dose: 0.37 mg/kg/injection, schedule: Q01DX009 (ip), vehicle: DMSO): 109 % of control
- T/C (dose: 0.75 mg/kg/injection, schedule: Q01DX009 (ip), vehicle: DMSO): 102 % of control

SMILES: NC(N)=N/N=C/c1ccc(Cl)c(Cl)c1
- T/C (dose: 6.25 mg/kg/injection, schedule: Q01DX009 (ip), vehicle: Klucel (hydroxypropylcellulose) (HPC)): 102 % of control
- T/C (dose: 12.5 mg/kg/injection, schedule: Q01DX009 (ip), vehicle: Klucel (hydroxypropylcellulose) (HPC)): 100 % of control
- T/C (dose: 25.0 mg/kg/injection, schedule: Q01DX009 (ip), vehicle: Klucel (hydroxypropylcellulose) (HPC)): 94 % of control
- T/C (dose: 50.0 mg/kg/injection, schedule: Q01DX009 (ip), vehicle: Klucel (hydroxypropylcellulose) (HPC)): 100 % of control

SMILES: FC(F)(F)/C([S-])=C(/[S-])C(F)(F)F.FC(F)(F)/C([S-])=C(/[S-])C(F)(F)F.FC(F)(F)/C([S-])=C(/[S-])C(F)(F)F.FC(F)(F)/C([S-])=C(/[S-])C(F)(F)F.[Co+3].[Co+3]
- T/C (dose: 12.5 mg/kg/injection, schedule: Q04DX003 (ip), vehicle: other): 110 % of control
- T/C (dose: 25.0 mg/kg/injection, schedule: Q04DX003 (ip), vehicle: other): 120 % of control

SMILES: CCCN(CCC)c1ccc(C=O)cc1
- T/C (dose: 50.0 mg/kg/injection, schedule: Q04DX003 (ip), vehicle: Klucel (hydroxypropylcellulose) (HPC)): 100 % of control
- T/C (dose: 100.0 mg/kg/injection, schedule: Q04DX003 (ip), vehicle: Klucel (hydroxypropylcellulose) (HPC)): 105 % of control
- T/C (dose: 200.0 mg/kg/injection, schedule: Q04DX003 (ip), vehicle: Klucel (hydroxypropylcellulose) (HPC)): 94 % of control

SMILES: CCCCCc1cc(/C=C2/N=C(c3ccc[nH]3)C=C2OC)[nH]c1C
- T/C (dose: 1.0 mg/kg/injection, schedule: Q01DX009 (ip), vehicle: other): 118 % of control
- T/C (dose: 2.0 mg/kg/injection, schedule: Q01DX009 (ip), vehicle: other): 118 % of control

SMILES: C1CC[N-]CC1.C1CC[N-]CC1.O=C(CC(=O)C(F)(F)F)C(F)(F)F.O=C(CC(=O)C(F)(F)F)C(F)(F)F.[Ni+2]
- T/C [6]: 104 % of control
- T/C [7]: 108 % of control
- T/C [2]: 104 % of control

SMILES: CCC/C=C/C=C/C1CC(O)C(O)C(=O)C1C=O (stereo unspecified)
- T/C [5]: 108 % of control
- T/C (dose: 25.0 mg/kg/injection, schedule: Q01DX009 (ip), vehicle: saline with Tween-80): 100 % of control
- T/C [3]: 101 % of control

SMILES: CCCCCCCCCSC(=S)N(C)NC(=O)c1ccccn1
- T/C [3]: 98 % of control
- T/C [4]: 98 % of control

SMILES: O=C(O)CNC(=O)C(Br)Cc1ccccc1 (stereo unspecified)
- T/C [8]: 90 % of control
- T/C [9]: 100 % of control
- T/C (dose: 400.0 mg/kg/injection, schedule: Q04DX003 (ip), vehicle: saline with Tween-80): 100 % of control

SMILES: CCCCn1cnc2c(SC3CCCC3)ncnc21
- T/C (dose: 100.0 mg/kg/injection, schedule: Q01DX009 (ip), vehicle: other): 100 % of control
- T/C (dose: 100.0 mg/kg/injection, schedule: Q04DX003 (ip), vehicle: saline sonified): 100 % of control
- T/C (dose: 200.0 mg/kg/injection, schedule: Q01DX009 (ip), vehicle: other): 90 % of control
- T/C (dose: 200.0 mg/kg/injection, schedule: Q04DX003 (ip), vehicle: saline sonified): 100 % of control
- T/C (dose: 400.0 mg/kg/injection, schedule: Q01DX009 (ip), vehicle: other): 120 % of control
- T/C (dose: 400.0 mg/kg/injection, schedule: Q04DX003 (ip), vehicle: saline sonified): 100 % of control

SMILES: CCN(CC)c1c(C)nnc2c(-c3ccccc3)cnn12
- T/C (dose: 50.0 mg/kg/injection, schedule: Q04DX003 (ip), vehicle: saline with Tween-80): 108 % of control
- T/C [8]: 100 % of control
- T/C [9]: 104 % of control
